Here are results for 47 compounds from ChEMBL document CHEMBL6092140, “Structure-activity relationship study of small-molecule inhibitor of Atg12-Atg3 protein-protein interaction” (Bioorg Med Chem Lett, 2024).

The nature of assay [1]: Inhibition of wild type ATG12-ATG3 protein protein interaction (unknown origin) expressed in HEK293T cells preincubated for ATG12 for 1 hr followed by ATG3 addition by luminescence based microplate analysis. The format is cell-based, Homo sapiens.
In assay [2] the target is Casein kinase II subunit alpha' (Homo sapiens) (UniProt P19784). The assay is described as follows: Inhibition of […] (unknown origin) assessed as residual activity relative to control. On the set-up: concentration or dose not given beside the values.

Calls of active or inactive are those of the source. The rule behind the calls is not given here.

Chain of Casein kinase II subunit alpha' (Homo sapiens) (P19784 whole entry, looked up): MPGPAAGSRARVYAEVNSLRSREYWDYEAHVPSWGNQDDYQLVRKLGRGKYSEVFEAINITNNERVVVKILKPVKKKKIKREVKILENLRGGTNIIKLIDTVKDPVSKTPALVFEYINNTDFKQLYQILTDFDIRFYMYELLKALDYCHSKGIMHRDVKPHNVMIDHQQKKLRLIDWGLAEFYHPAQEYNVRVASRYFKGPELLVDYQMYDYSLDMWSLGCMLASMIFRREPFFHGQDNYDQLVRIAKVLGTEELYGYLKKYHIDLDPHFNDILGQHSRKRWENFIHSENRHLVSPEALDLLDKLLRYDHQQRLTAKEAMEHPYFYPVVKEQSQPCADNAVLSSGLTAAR

What is called IC50 is the concentration that gives 50% inhibition. In assay [1], `O=C(O)c1ccc2cnc(Nc3cccc(Cl)c3)nc2c1` returned an IC50 of 62 µM. The Activity in assay [2] was -4%.
Compound `O=C(O)c1ccc2c(c1)nc(Nc1cccc(Cl)c1)c1cnccc12` showed an IC50 in assay [1] of 10 µM. Also, in assay [2], the Activity worked out at 28%.
`N/C(=N\O)c1ccc2c(c1)nc(Nc1cccc(Cl)c1)c1cccnc12`: in assay [1], the IC50 is over 99 µM. Besides, the result in assay [2] was inactive.
The like results for `Cn1ncc2c(Nc3cccc(Cl)c3)nc3cc(C(=O)O)ccc3c21` were, in that order, 42 µM and 35%.
In the same order, the values of `Cc1cn2c(Nc3cccc(C(F)(F)F)c3)nc3cc(C(=O)O)ccc3c2n1` are 30 µM and 48%.
In the same order, the values of `Cc1cn2c(Nc3cccc(OC(F)(F)F)c3)nc3cc(C(=O)O)ccc3c2n1` are 37 µM and 42%.
The compound `O=C(O)c1ccc2c(Cc3ccccc3)cc(Nc3cccc(Cl)c3)nc2c1` displayed an IC50 in assay [1] of over 99 µM. Also, the Activity in assay [2] is 101%.
The like results for `O=C(O)c1ccc2c(c1)nc(Nc1cccc(Cl)c1)n1cc(-c3ccccc3)nc21` were, in that order, 9 µM and 114%.
In the same order, the values of `O=C(O)c1ccc2c(c1)N=C(Nc1cccc(Cl)c1)N1CCN=C21` are 60 µM and 128%.
For the compound `Cc1cn2c(Nc3cccc(C(C)(C)C)c3)nc3cc(C(=O)O)ccc3c2n1`, the IC50 in assay [1] was 24 µM. In addition, in assay [2], the Activity turned out to be 102%.
`Cc1cn2c(Nc3cccc(F)c3)nc3cc(C(=O)O)ccc3c2n1` gave an IC50 in assay [1] of 90 µM. In addition, the Activity in assay [2] was 35%.
In the same order, the values of `Cc1cn2c(Nc3cccc(Cl)c3)nc3cc(P(=O)(O)O)ccc3c2n1` are over 99 µM and 95%.
Regarding `O=C(O)c1ccc2c(c1)nc(Nc1cccc(Cl)c1)c1ccncc12` [SILMITASERTIB], in assay [1], the midpoint of inhibition, the IC50, lay at 27 µM. Also, the Activity in assay [2] was 2%.
The like results for `Cc1cn2c(Nc3cccc(C(C)C)c3)nc3cc(C(=O)O)ccc3c2n1` were, in that order, 41 µM and 31%.
In the same order, the values of `COc1nc(Nc2cccc(Cl)c2)nc2cc(C(=O)O)ccc12` are 91 µM and 50%.
Consider `Cn1cnc2c3ccc(C(=O)O)cc3nc(Nc3cccc(Cl)c3)c21`, for which, in assay [1], the IC50 is 62 µM. The Activity in assay [2] came out at 55%.
The like results for `CC1=CN2C(Nc3cccc(Cl)c3)=Nc3cc(-c4noc(=O)[nH]4)ccc3C2N1` (centres undefined) were, in that order, 92 µM and 105%.
The compound `O=C(O)c1ccc2c(c1)nc(Nc1cccc(Cl)c1)c1ncsc12` yielded an IC50 in assay [1] of 16 µM. The Activity in assay [2] was found to be 1%.
In the same order, the values of `CC1=CN2C(Nc3cccc(Cl)c3)=Nc3cc(C(N)=O)ccc3C2N1` (centres undefined) are over 99 µM and 109%.
As for `O=C(O)c1ccc2c(c1)nc(Nc1cccc(Cl)c1)n1cc(Cc3ccccc3)nc21`, half-maximal inhibition in assay [1] (IC50) required 14 µM. For the same compound, the Activity in assay [2] came out at 81%.
In turn, `CC(C)c1cn2c(Nc3cccc(Cl)c3)nc3cc(C(=O)O)ccc3c2n1` had an IC50 in assay [1] of 30 µM. The Activity in assay [2] was 105%.
The like results for `CC1=CN2C(Nc3cccc(Cl)c3)=Nc3cc(-c4nnn[nH]4)ccc3C2N1` (centres undefined) were, in that order, 73 µM and 80%.
In the same order, the values of `Cn1ncc2c3ccc(C(=O)O)cc3nc(Nc3cccc(Cl)c3)c21` are 19 µM and 1%.
In the same order, the values of `O=C(O)c1ccc2c(c1)N=C(Nc1cccc(Cl)c1)N1CCCN=C21` are over 99 µM and 87%.
For the compound `Cc1nsc2c1c(Nc1cccc(Cl)c1)nc1cc(C(=O)O)ccc12`, 11 µM corresponded to half-maximal inhibition in assay [1] (IC50). In addition, the Activity in assay [2] is -1%.
In the same order, the values of `O=C(O)c1ccc2c(c1)nc(Nc1cccc(Cl)c1)c1ccccc12` are 45 µM and 36%.
`O=C(O)c1ccc2c(Cc3ccccc3)nc(Nc3cccc(Cl)c3)nc2c1`: the IC50 in assay [1] is over 99 µM. Further, the Activity in assay [2] was 96%.
In the same order, the values of `O=C(O)c1ccc2c(c1)nc(Nc1cccc(Cl)c1)n1ccnc21` are 14 µM and 31%.
In the same order, the values of `O=C(O)c1ccc2c(c1)nc(Nc1cccc(Cl)c1)c1ccsc12` are 14 µM and -1%.
The compound `Cc1cn2c(NC34CC5CC(CC(C5)C3)C4)nc3cc(C(=O)O)ccc3c2n1` registered an IC50 in assay [1] of 25 µM. Moreover, the Activity in assay [2] is 83%.
For `Cc1scc2c1c(Nc1cccc(Cl)c1)nc1cc(C(=O)O)ccc12`, 14 µM corresponded to half-maximal inhibition in assay [1] (IC50). In addition, the Activity in assay [2] is 33%.
In the same order, the values of `O=C(O)c1ccc2c(c1)nc(Oc1cccc(Cl)c1)c1ccncc12` are 51 µM and 4%.
The like results for `O=C(O)c1ccc2ccc(Nc3cccc(Cl)c3)nc2c1` were, in that order, 50 µM and 20%.
Consider `Cc1cn2c(Nc3ccnc(Cl)c3)nc3cc(C(=O)O)ccc3c2n1`, for which the IC50 in assay [1] is 71 µM. Besides, the Activity in assay [2] was determined as 73%.
In the same order, the values of `Cc1cn2c(NC3CCCCC3)nc3cc(C(=O)O)ccc3c2n1` are over 99 µM and 72%.
The like results for `Cc1cn2c(Nc3cccc(Cl)c3)nc3cc(C(=O)O)ccc3c2n1` were, in that order, 8 µM and 26%.
The like results for `O=c1[nH]nc(-c2ccc3c(c2)nc(Nc2cccc(Cl)c2)c2cccnc23)o1` were, in that order, 72 µM and 52%.
For the compound `Cc1cn2c(N(C)c3cccc(Cl)c3)nc3cc(C(=O)O)ccc3c2n1`, the IC50 in assay [1] is over 99 µM. Besides, in assay [2], the Activity was determined as 75%.
The like results for `Cc1cn2c(Nc3cccc(I)c3)nc3cc(C(=O)O)ccc3c2n1` were, in that order, 10 µM and 11%.
In the same order, the values of `O=C(O)c1ccc2c(c1)nc(Nc1cccc(Cl)c1)c1cccnc12` are 6 µM and 13%.
With `Cc1cn2c(Nc3ccc(Cl)cc3)nc3cc(C(=O)O)ccc3c2n1`, the IC50 in assay [1] is over 99 µM. Moreover, in assay [2], the Activity worked out at 76%.
The like results for `Cc1cnc2c3ccc(C(=O)O)cc3nc(Nc3cccc(Cl)c3)n12` were, in that order, 24 µM and 29%.
The like results for `Clc1cccc(Nc2nc3cc(-c4nnn[nH]4)ccc3c3ncccc23)c1` were, in that order, 64 µM and 53%.
In the same order, the values of `Cc1cn2c(Nc3cccc(C#N)c3)nc3cc(C(=O)O)ccc3c2n1` are 8 µM and 38%.
Regarding `CCc1cn2c(Nc3cccc(Cl)c3)nc3cc(C(=O)O)ccc3c2n1`, the IC50 in assay [1] turned out to be 24 µM. In addition, the Activity in assay [2] came to 20%.
The like results for `CC(=O)Oc1ccc(COC(=O)c2ccc3c(c2)nc(Nc2cccc(Cl)c2)c2cccnc23)cc1` were, in that order, 53 µM and “inactive”.
Compound `Cc1cn2c(NC(C)(C)C)nc3cc(C(=O)O)ccc3c2n1` displayed an IC50 in assay [1] of over 99 µM. Also, the Activity in assay [2] was determined as 104%.
